In BindingDB's records for patent US20250115607 (Hoffmann-La Roche, 2025) one finds IC50 data, which are given here for 1 molecule.

Holding throughout (test): Phosphorylation Assay SIK1-3
In experiment [1] the target is Serine/threonine-protein kinase SIK2 (Homo sapiens, UniProt Q9H0K1). The protocol: (§1) In the presence of SIK2 (resp. SIK1 or SIK3) and ATP the CHK-peptide ([…] with C-terminal arginine amide modification) were phosphorylated at one of the four feasible serine's. Only one phosphorylation is observed under the assay conditions. 60 nl of each compound dilution series (12 point; dilution factor 3, generally 30 μM to 170 pM) in DMSO were transferred by acoustic dispensing to the assay plate and 30 minutes pre-incubated (ambient temperature) after the addition of 5 μl SIK1 (5 nM) resp. 5 μl SIK2 (0.5 nM) or 7 μl SIK3 (1.5 nM) in assay-buffer (12.5 mM HEPES (pH 7.0), 10 mM magnesium acetate, 0.005% BSA). 10 μM CHK-peptide solution and 5 μl of 100 μM ATP for SIK1 & SIK2 resp. 3 μl for SIK3 in assay-buffer were added and incubated ambient for 45 minutes. 40 μl of 0.125% formic acid in water were added to quench the reaction. RapidFire (RF) Mass Spectrometry was utilized for data generation as described below. The multiple charged species (3-5 charges) for the phosphorylated and non-phosphorylated form measured by MRM (Multiple Reaction Monitoring; API5000 or 6500+) or EIC (Extracted Ion Current; QToF) were summed up and the ratio calculated (sum phosphorylated species/sum all species) for data evaluation. Normalization was performed by Genedata software based on the non-inhibition control DMSO and the commercially available STK inhibitor @1 μM YKL-05-099 (CAS number 1936529-65-5).
Chain of Serine/threonine-protein kinase SIK2 (Q9H0K1 whole entry): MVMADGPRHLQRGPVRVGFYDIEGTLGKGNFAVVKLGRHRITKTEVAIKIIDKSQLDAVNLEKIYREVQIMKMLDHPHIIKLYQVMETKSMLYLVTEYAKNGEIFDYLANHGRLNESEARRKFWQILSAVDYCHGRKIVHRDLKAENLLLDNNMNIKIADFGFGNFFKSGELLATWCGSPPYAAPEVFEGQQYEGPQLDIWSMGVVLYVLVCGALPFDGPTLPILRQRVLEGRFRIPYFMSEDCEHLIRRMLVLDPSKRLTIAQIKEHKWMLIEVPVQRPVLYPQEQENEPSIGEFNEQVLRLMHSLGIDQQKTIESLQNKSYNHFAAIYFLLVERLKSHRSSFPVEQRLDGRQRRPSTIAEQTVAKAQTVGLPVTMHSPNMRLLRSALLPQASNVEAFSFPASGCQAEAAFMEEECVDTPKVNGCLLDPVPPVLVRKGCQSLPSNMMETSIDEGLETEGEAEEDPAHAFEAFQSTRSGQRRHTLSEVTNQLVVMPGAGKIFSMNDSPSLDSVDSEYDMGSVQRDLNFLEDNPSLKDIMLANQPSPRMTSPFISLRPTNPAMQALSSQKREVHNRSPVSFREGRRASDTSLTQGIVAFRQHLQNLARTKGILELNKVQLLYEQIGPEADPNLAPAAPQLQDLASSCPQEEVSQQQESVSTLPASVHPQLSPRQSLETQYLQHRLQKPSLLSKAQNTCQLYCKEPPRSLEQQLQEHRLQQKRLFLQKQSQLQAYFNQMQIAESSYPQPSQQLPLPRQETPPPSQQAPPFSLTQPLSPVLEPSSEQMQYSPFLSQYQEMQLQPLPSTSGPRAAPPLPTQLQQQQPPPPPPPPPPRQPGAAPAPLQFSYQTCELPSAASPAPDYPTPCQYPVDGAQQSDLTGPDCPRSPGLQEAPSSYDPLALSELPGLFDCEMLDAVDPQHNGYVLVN

Experiment [2] concerns the target Serine/threonine-protein kinase SIK1 (Homo sapiens, UniProt P57059). The protocol:
as §1

Experiment [3] has as its target Serine/threonine-protein kinase SIK3 (Homo sapiens, UniProt Q9Y2K2). The method, then: as §1

Broadly, the IC50 is the midpoint of a concentration-inhibition curve. Low readings indicate greater potency in that assay, high ones weaker potency in that assay.

Chain of Serine/threonine-protein kinase SIK3 (Q9Y2K2 whole entry): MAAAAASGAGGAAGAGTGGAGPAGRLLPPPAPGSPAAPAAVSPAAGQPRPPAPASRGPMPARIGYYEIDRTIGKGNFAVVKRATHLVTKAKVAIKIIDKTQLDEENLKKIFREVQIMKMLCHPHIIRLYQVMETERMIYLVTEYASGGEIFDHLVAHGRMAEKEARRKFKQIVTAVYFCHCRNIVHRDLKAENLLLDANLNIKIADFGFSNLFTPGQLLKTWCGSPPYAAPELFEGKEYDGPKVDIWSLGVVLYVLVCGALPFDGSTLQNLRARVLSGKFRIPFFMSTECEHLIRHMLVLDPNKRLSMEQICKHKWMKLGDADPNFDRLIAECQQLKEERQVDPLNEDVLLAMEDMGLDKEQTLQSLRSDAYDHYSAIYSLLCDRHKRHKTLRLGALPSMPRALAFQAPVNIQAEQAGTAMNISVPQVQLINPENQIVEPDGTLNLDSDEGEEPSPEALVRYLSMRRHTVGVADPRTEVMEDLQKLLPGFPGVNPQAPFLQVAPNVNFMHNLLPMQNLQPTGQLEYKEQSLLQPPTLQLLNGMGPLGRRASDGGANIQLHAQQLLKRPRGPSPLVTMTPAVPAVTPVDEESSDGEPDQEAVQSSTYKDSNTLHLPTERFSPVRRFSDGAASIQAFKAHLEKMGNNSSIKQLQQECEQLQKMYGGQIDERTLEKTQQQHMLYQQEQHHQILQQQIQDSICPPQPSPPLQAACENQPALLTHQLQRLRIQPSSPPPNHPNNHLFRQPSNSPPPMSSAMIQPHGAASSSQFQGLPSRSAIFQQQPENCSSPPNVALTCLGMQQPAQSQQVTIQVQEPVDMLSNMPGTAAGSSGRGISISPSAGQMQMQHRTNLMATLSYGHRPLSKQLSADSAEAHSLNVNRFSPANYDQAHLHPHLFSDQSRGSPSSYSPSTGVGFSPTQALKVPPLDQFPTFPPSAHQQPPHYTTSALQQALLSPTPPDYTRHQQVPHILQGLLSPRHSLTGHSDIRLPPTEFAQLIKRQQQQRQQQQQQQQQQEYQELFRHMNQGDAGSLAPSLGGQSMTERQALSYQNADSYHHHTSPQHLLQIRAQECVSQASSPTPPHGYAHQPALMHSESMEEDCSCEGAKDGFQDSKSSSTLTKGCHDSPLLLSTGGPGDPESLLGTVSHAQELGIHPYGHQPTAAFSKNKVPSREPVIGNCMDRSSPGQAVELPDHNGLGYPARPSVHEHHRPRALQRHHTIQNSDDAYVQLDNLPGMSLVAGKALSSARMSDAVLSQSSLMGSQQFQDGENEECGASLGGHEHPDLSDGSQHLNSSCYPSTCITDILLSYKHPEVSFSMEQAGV
Chain of Serine/threonine-protein kinase SIK1 (P57059 whole entry): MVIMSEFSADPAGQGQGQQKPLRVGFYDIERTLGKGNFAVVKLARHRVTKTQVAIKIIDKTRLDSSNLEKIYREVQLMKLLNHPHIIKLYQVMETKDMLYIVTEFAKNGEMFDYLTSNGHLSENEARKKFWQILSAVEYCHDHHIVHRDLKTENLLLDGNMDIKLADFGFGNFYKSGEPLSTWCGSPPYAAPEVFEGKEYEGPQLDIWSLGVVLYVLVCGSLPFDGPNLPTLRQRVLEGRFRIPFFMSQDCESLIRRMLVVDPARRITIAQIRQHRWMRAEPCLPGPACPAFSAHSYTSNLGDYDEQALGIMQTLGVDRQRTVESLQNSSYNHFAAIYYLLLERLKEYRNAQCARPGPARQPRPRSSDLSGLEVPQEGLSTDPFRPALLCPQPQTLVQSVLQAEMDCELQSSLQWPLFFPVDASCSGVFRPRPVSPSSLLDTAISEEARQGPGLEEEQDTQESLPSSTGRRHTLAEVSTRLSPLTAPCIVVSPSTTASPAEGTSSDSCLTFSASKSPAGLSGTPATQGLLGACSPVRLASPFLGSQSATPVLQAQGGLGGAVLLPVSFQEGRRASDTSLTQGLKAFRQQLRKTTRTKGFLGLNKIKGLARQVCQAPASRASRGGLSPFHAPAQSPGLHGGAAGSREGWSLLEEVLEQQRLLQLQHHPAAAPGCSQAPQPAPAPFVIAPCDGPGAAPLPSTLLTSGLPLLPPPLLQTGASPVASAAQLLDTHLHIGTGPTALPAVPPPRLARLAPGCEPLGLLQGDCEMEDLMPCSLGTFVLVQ

Take `CC(=O)c1ccc(-n2cnc3cc(N(C)c4ccc(C)nn4)ncc32)nc1-n1nc(C#N)cc1C` [US20250115607, Example 5]: the figures for the IC50 in experiment [1], in experiment [2] and in experiment [3] were 0.687 µM, 19 µM and 2.06 µM, respectively.
